# Assay results from article PMC5725665, “Discovery of a Highly Selective Cell‐Active Inhibitor of the Histone Lysine Demethylases KDM2/7” (Angewandte Chemie (International Ed. in English), 2017).
# Target: T1, KDM2A (Homo sapiens, UniProt Q9Y2K7)
# T1 construct: isolated enzyme
# T1 sequence (Q9Y2K7 1-517 limits assumed): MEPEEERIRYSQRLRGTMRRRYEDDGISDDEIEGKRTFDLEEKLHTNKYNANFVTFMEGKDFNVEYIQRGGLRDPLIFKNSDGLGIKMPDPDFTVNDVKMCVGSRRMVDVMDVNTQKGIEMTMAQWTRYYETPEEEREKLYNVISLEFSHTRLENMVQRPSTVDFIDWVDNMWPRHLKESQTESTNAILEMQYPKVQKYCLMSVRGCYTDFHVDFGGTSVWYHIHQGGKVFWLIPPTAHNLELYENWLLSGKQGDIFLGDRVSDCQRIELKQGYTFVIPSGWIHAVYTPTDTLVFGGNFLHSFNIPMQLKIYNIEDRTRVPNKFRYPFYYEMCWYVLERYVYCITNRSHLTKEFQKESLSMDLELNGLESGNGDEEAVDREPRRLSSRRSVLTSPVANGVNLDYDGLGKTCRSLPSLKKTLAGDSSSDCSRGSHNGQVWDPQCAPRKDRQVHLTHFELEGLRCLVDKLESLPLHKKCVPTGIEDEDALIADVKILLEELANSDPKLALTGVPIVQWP
# Test: biochemical
# Design: RapidFire MS histone peptide demethylation assay
# Conditions: inhibitor
# Method: [formula] Scheme 1 A) General synthetic strategy for racemic synthesis of KDM2A inhibitors. Reagents and conditions: i) Zn powder (10 equiv), NH4Cl (15 equiv), 5:1 acetone/H2O or H2, Pd/C (10 % w/w), EtOAc; ii) ArCHO (1.3 equiv), MgSO4 (5 equiv), PhMe or ArCHO (1.3 equiv), pyrrolidine (0.1 equiv), 3 Å sieves, CH2Cl2; iii) KO^tBu (1.1 equiv), PhMe, 0 °C; iv) R^3COCl (2–5 equiv), pyridine (2–5 equiv), CH2Cl2; v) metal‐catalysed cross‐coupling. B) Key structure–activity relationships. IC50 values were determined by RapidFire MS and confirmed by AlphaScreen. All compounds are racemic. C) Catalytic enantioselective synthesis. Reagents and conditions: i) CsOH⋅H2O (2.0 equiv), catalyst 14/16 (10 mol %), PhMe, −30 °C. Catalyst 14: 89 %, d.r. 10:1, e.r. 88:12; catalyst 16: 84 %, d.r. 7:1, e.r. 17:83; ii) CH3COCl (2.0 equiv), pyridine (2.0 equiv), CH2Cl2; iii) H2, Pd/C (10 % w/w), 88 % (2 steps); iv) K2CO3 (5 equiv), Br(CH2)7Br (4 equiv), acetone, reflux, 38 %; v) K2CO3 (5 equiv) pyrrolidine (4 equiv), CH3CN, 65 %; vi) PhN(SO2CF3)2 (1.1 equiv), DIPEA (2.0 equiv), CH2Cl2, 0 °C, 85 %; vii) 7‐pyrrolidine‐hept‐1‐yne (1.5 equiv), PdCl2(PPh3)2 (5 mol %), CuI (5 mol %), HN(^iPr)2, 75 °C, 79 %; viii) H2, Pd/C (10 % w/w), MeOH, 74 %. DIPEA=(^iPr)2NEt. A base‐mediated 5‐endo‐trig cyclization of a C‐2‐substituted aromatic imine afforded the racemic indoline core with two adjacent stereocenters. Subsequent acylation of the indoline ring system conferred stability towards oxidation and provided a handle for modulating polarity. Finally, metal‐catalysed cross‐coupling of the aryl bromide provided access to a variety of linkers between the indoline core and pyrrolidine capping group. In total, 45 racemic compounds were synthesized, and IC50 values for inhibition of KDM2A were determined using two orthogonal enzyme activity assays: AlphaScreen25 and RapidFire MS26 (see Section S3.1 in the Supporting Information for complete inhibition data). Key structure–activity relationships are summarized below (Scheme 1 B, compounds 2–12).
row,KDM2A RapidFire pIC50,SMILES
1,5.884,"N#C[C@]1(c2ccccc2)c2ccccc2N[C@@H]1c1cncc(C#CCCCCCN2CCCC2)c1 (relative stereo) [compound 137, 137]"
2,6.368,"N#CCC(=O)N1c2ccccc2[C@](C#N)(c2ccccc2)[C@H]1c1cncc(CCCCCCCN2CCCC2)c1 (relative stereo) [compound 139, 139]"
3,6.708,"N#C[C@]1(c2ccccc2)c2ccccc2N[C@@H]1c1cncc(CCCCCCCN2CCCC2)c1 (relative stereo) [compound 142, 142]"
4,6.401,"CC(=O)N1c2ccccc2[C@@](C#N)(c2ccccc2)[C@@H]1c1cncc(OCCCCCCCN2CCCC2)c1 [(S,S)-3]"

# Same assay, conditions: read-out: KDM2A RapidFire pIC50 (converted)
row,IC50,SMILES
1,1.35 µM,"CC(C)CC(=O)N1c2ccccc2[C@](C#N)(c2ccccc2)[C@H]1c1cccc(OCCCCCCCN2CCCC2)c1 (racemic) [compound 65, (2RS,3RS)-1-(3-Methylbutanoyl)-3-phenyl-2-(3-((7-(pyrrolidin-1-yl)heptyl)oxy)phenyl)indoline-3-carbonitrile]"
2,1.32 µM,"N#C[C@]1(c2ccccc2)c2ccccc2N(C(=O)c2ccc(C(F)(F)F)cc2)[C@@H]1c1cccc(OCCCCCCCN2CCCC2)c1 (racemic) [compound 66, (2RS,3RS)-3-Phenyl-2-(3-((7-(pyrrolidin-1-yl)heptyl)oxy)phenyl)-1-(4-(trifluoromethyl)benzoyl)indoline-3-carbonitrile]"
3,1.07 µM,"CC(=O)N1c2ccccc2[C@](C#N)(c2ccccc2)[C@H]1c1cccc(OCCCCCCCN2CCCCC2)c1 (racemic) [compound 69, (2RS,3RS)-1-Acetyl-3-phenyl-2-(3-((7-(piperidin-1-yl)heptyl)oxy)phenyl)indoline-3-carbonitrile]"
4,3.26 µM,"CC(=O)N1c2ccccc2[C@](C#N)(c2ccccc2)[C@H]1c1cccc(OCCCCCCCN2CCOCC2)c1 (racemic) [compound 70, (2RS,3RS)-1-Acetyl-2-(3-((7-morpholinoheptyl)oxy)phenyl)-3-phenylindoline-3-carbonitrile]"
5,0.838 µM,"CC(=O)N1c2ccccc2[C@](C#N)(c2ccccc2)[C@H]1c1cncc(/C=C\CCCCCN2CCCC2)c1 (racemic) [compound 152, (2RS,3RS)-1-Acetyl-3-phenyl-2-(5-((Z)-7-(pyrrolidin-1-yl)hept-1-en-1-yl)pyridin-3-yl)indoline-3-carbonitrile]"

# Further lines, the compound ahead of its results:
row,SMILES,IC50
1,"CC(=O)N1c2ccccc2[C@](C#N)(c2ccccc2)[C@H]1c1cccc(OCCCCN2CCCC2)c1 (racemic) [compound 56, (2RS,3RS)-1-Acetyl-3-phenyl-2-(3-(4-(pyrrolidin-1-yl)butoxy)phenyl)indoline-3-carbonitrile]",2.02 µM
2,"CC(=O)N1c2ccccc2[C@](C#N)(c2ccccc2)[C@H]1c1cccc(OCCCCCN2CCCC2)c1 (racemic) [compound 57, (2RS,3RS)-1-Acetyl-3-phenyl-2-(3-((5-(pyrrolidin-1-yl)pentyl)oxy)phenyl)indoline-3-carbonitrile]",1.25 µM
3,"CC(=O)N1c2ccccc2[C@](C#N)(c2ccccc2)[C@H]1c1cccc(OCCCCCCN2CCCC2)c1 (racemic) [compound 58, (2RS,3RS)-1-Acetyl-3-phenyl-2-(3-((6-(pyrrolidin-1-yl)hexyl)oxy)phenyl)indoline-3-carbonitrile]",1.03 µM
4,"CC(=O)N1c2ccccc2[C@](C#N)(c2ccccc2)[C@H]1c1cccc(OCCCCCCCN2CCCC2)c1 (racemic) [compound 59, (2RS,3RS)-1-Acetyl-3-phenyl-2-(3-((7-(pyrrolidin-1-yl)heptyl)oxy)phenyl)indoline-3-carbonitrile]",0.893 µM
5,"CC(=O)N1c2ccccc2[C@](C#N)(c2ccccc2)[C@H]1c1cccc(OCCCCCCCCN2CCCC2)c1 (racemic) [compound 60, (2RS,3RS)-1-Acetyl-3-phenyl-2-(3-((8-(pyrrolidin-1-yl)octyl)oxy)phenyl)indoline-3-carbonitrile]",1.38 µM
6,"CC(=O)N1c2ccccc2[C@](C#N)(c2ccccc2)[C@H]1c1cccc(OCCCCCCCCCN2CCCC2)c1 (racemic) [compound 62, (2RS,3RS)-1-Acetyl-3-phenyl-2-(3-((9-(pyrrolidin-1-yl)nonyl)oxy)phenyl)indoline-3-carbonitrile]",1.51 µM
7,"N#C[C@]1(c2ccccc2)c2ccccc2N(C(=O)c2ccccc2)[C@@H]1c1cccc(OCCCCCCCN2CCCC2)c1 (racemic) [compound 63, (2RS,3RS)-1-Benzoyl-3-phenyl-2-(3-((7-(pyrrolidin-1-yl)heptyl)oxy)phenyl)indoline-3-carbonitrile]",2.02 µM
8,"N#C[C@]1(c2ccccc2)c2ccccc2N(C(=O)c2ccco2)[C@@H]1c1cccc(OCCCCCCCN2CCCC2)c1 (racemic) [compound 64, (2RS,3RS)-1-(Furan-2-carbonyl)-3-phenyl-2-(3-((7-(pyrrolidin-1-yl)heptyl)oxy)phenyl)indoline-3-carbonitrile]",0.883 µM

# Target: T2, JMJD2A (KDM4A) (Homo sapiens, UniProt O75164)
# T2 sequence (O75164 1-1064): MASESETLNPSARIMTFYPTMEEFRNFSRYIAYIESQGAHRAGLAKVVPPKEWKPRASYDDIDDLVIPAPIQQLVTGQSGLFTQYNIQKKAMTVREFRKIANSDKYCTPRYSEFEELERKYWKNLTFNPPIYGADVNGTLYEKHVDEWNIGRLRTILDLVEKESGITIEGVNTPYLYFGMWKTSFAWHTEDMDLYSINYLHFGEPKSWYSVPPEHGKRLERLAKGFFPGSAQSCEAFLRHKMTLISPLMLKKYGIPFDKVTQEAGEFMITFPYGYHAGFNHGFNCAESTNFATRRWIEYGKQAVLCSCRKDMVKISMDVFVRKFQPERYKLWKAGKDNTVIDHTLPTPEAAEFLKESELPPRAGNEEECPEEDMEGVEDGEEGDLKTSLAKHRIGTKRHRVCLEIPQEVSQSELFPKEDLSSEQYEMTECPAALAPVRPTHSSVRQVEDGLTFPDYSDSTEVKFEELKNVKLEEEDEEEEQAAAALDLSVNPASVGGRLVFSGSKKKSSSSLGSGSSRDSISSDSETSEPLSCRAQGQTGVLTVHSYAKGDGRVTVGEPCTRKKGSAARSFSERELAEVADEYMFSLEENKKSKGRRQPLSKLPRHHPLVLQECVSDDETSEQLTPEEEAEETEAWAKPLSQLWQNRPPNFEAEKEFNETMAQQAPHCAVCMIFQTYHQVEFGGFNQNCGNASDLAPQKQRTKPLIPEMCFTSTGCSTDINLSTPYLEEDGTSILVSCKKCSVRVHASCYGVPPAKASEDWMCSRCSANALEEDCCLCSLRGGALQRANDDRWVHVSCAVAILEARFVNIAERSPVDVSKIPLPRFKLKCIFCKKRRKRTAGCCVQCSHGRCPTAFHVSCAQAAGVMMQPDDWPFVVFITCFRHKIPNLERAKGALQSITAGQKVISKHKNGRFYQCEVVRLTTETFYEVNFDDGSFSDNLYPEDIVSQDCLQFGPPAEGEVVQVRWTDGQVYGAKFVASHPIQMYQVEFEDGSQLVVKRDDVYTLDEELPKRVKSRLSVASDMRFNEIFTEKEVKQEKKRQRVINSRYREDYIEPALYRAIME
# Test: biochemical
# Design: AlphaScreen histone demethylase activity assay
# Conditions: read-out: KDM4A % Inhib. (18.75 uM)
row,inhibition at 18.75 µM,SMILES
1,3.4%,"CC(=O)N1c2ccccc2[C@](C#N)(c2ccccc2)[C@H]1c1cccc(/C=C/CCCCCN2CCCC2)c1 (racemic) [compound 9, 9]"
2,19.8%,"CC(=O)N1c2ccccc2C(C#N)(c2ccccc2)C1c1ccc(C#CCCCCCN2CCCC2)o1 (centres unmarked) [compound 133, 133]"
3,19.4%,"CC(=O)N1c2ccccc2C(C#N)(c2ccccc2)C1c1cc(C#CCCCCCN2CCCC2)co1 (centres unmarked) [compound 134, 134]"
